Reference: ChEMBL document CHEMBL5236628 (J Med Chem, 2022)
In brackets after ≈: the same amount, converted by molar mass. Activity calls are given as the source filed them. The calls are words filed in the database; no cut-off is given here.

Key:
[1] = test system: HepG2; experiment: Cytotoxicity against human HepG2 cells after 48 hrs by CellTiter Glo assay; assay type: toxicity, cell-based; conditions: hepg2, 48 h
[2] = Cytotoxicity against CHO cells measured after 48 hrs by MTT assay; conditions: Chinese hamster
[3] = test system: Plasmodium berghei; experiment: Antiplasmodial activity against Plasmodium berghei ANKA infected in mouse assessed as mean survival days at 50 mg/kg, po administered for 4 days and measured upto 30 days; assay type: functional; conditions: time 4 day
[4] = Cmax in mouse at 10 mg/kg, po; assay type: ADME, organism-based; set-up: dose 10 mg/kg, route po; conditions: in vivo
[5] = Tmax in mouse at 10 mg/kg, po; assay type: ADME, organism-based; conditions: in vivo
[6] = Apparent half life in mouse at 10 mg/kg, po; assay type: ADME, organism-based; conditions: in vivo, read-out: t1/2(app) (converted)
[7] = Apparent half life in mouse at 3 mg/kg, iv; assay type: ADME, organism-based; conditions: in vivo, read-out: t1/2(app) (converted)
[8] = Intrinsic clearance in mouse at 3 mg/kg, iv; assay type: ADME, organism-based; conditions: in vivo
[9] = Volume of distribution in mouse at 3 mg/kg, iv; assay type: ADME, organism-based; conditions: in vivo
[10] = AUC(0 to infinity) in mouse at 3 mg/kg, iv; assay type: ADME, organism-based; set-up: dose 3 mg/kg, route iv; conditions: in vivo
[11] = AUC(0 to infinity) in mouse at 10 mg/kg, po; assay type: ADME, organism-based; set-up: dose 10 mg/kg, route po; conditions: in vivo
[12] = AUC(0 to infinity) in mouse at 50 mg/kg, po; assay type: ADME, organism-based; set-up: dose 50 mg/kg, route po; conditions: in vivo
[13] = Oral bioavailability in mouse at 10 mg/kg; assay type: ADME, organism-based; conditions: in vivo
[14] = Oral bioavailability in mouse at 50 mg/kg; assay type: ADME, organism-based; conditions: in vivo
[15] = test system: Hemozoin; experiment: Inhibition of Beta-hematin in Plasmodium falciparum NF54 assessed as hemozoin formation after 36 hrs by flow cytometry analysis
[16] = Cmax in mouse at 50 mg/kg, po; assay type: ADME, organism-based; set-up: dose 50 mg/kg, route po; conditions: in vivo
[17] = Tmax in mouse at 50 mg/kg, po; assay type: ADME, organism-based; conditions: in vivo
[18] = Apparent half life in mouse at 50 mg/kg, po; assay type: ADME, organism-based; conditions: in vivo, read-out: t1/2(app) (converted)
[19] = test system: Plasmodium falciparum; experiment: Antiplasmodial activity against multidrug resistant Plasmodium falciparum K1 incubated for 72 hrs by microplate reader assay; assay type: functional, organism-based; conditions: K1, 72 h
[20] = test system: Plasmodium falciparum; experiment: Antiplasmodial activity against early stage (I to III) Plasmodium falciparum incubated for 48 hrs by bioluminescence assay; assay type: functional, organism-based
[21] = test system: Plasmodium berghei; experiment: Antiplasmodial activity against liver stage Plasmodium berghei ANKA sporozoites expressing GFP infected in HepG2 cells pre-infected with cells for 1 hr prior to compound addition and measured after 48 hrs by flow cytometry analysis
[22] = test system: Plasmodium berghei; experiment: Antiplasmodial activity against Plasmodium berghei ANKA infected in mouse assessed as reduction in parasitemia at 50 mg/kg, po administered for 4 days; assay type: functional; set-up: scale not given: the % may be the effect or the level left; conditions: time 4 day
[23] = test system: Plasmodium falciparum; experiment: microbe, parasite or virus in culture; conditions: NF54, 72 h
[24] = test system: Plasmodium falciparum; experiment: Antiplasmodial activity against chloroquine sensitive Plasmodium falciparum NF54 infected in human erythrocytes incubated for 48 hrs followed by addition of [3H]-hypoxanthine and measured after 24 hrs by beta-plate liquid scintillation counting method; assay type: functional, organism-based
[25] = test system: Plasmodium falciparum; experiment: Antiplasmodial activity against multidrug resistant Plasmodium falciparum K1 infected in human erythrocytes incubated for 48 hrs followed by addition of [3H]-hypoxanthine and measured after 24 hrs by beta-plate liquid scintillation counting method; assay type: functional, organism-based
[26] = Drug accumulation in lysosomes of human erythrocytes infected with chloroquine sensitive Plasmodium falciparum NF54 by live cell imaging analysis; assay type: ADME, cell-based; conditions: erythrocyte
[27] = Drug accumulation in hemozoin crystal of human erythrocytes infected with chloroquine sensitive Plasmodium falciparum NF54 by live cell imaging analysis; assay type: ADME, cell-based; conditions: erythrocyte
[28] = Drug accumulation in nucleus of human erythrocytes infected with chloroquine sensitive Plasmodium falciparum NF54 by live cell imaging analysis; assay type: ADME, subcellular; conditions: erythrocyte
[29] = Drug accumulation in mitochondria of human erythrocytes infected with chloroquine sensitive Plasmodium falciparum NF54 by live cell imaging analysis; assay type: ADME; conditions: erythrocyte
[30] = Drug accumulation in endoplasmic reticulum of human erythrocytes infected with chloroquine sensitive Plasmodium falciparum NF54 by live cell imaging analysis; assay type: ADME, subcellular; conditions: erythrocyte
[31] = Drug accumulation in neutral lipid droplets of human erythrocytes infected with chloroquine sensitive Plasmodium falciparum NF54 by live cell imaging analysis; assay type: ADME, cell-based; conditions: erythrocyte
[32] = physchem; conditions: buffer, pH 7.4
[33] = Selectivity index, ratio of IC50 for Plasmodium falciparum NF54 to IC50 for CHO cells; conditions: hamster
[34] = test system: Plasmodium falciparum; experiment: Antiplasmodial activity against Plasmodium falciparum assessed as reduction in parasite viability incubated for 72 hrs by LDH assay; assay type: functional, organism-based

Question: Which results are given for `FC(F)(F)c1noc(-c2ccc(CCN3CCC(Nc4nc5ccccc5[nH]4)CC3)cc2)n1`?
Answer: Activity [1]: Non-Toxic; IC50 at 48 h ([2]; cho): 1.96 µM; MSD [3]: 14 days; Cmax [4]: 300 nM; Tmax [5]: 0.7 h; half-life [6]: 1.1 h; half-life [7]: 4.2 h; CL [8]: 71.7 mL/min/kg; Vd [9]: 26.6 L/kg; AUC [10]: 93.4 µM/min; AUC [11]: 48 µM/min; AUC [12]: 1429 µM/min; bioavailability [13]: 15.6%; bioavailability [14]: 93.3%; inhibition [15]: inactive; Cmax [16]: 1500 nM; Tmax [17]: 1.7 h; half-life [18]: 10.2 h

Question: For `Cn1c(NC2CCN(CCc3ccc(-c4nc(C(F)(F)F)no4)cc3)CC2)nc2ccccc21`, which IC50 [19] is on record?
Answer: The IC50 was 0.048 µM.

Question: What about the IC50 [20] of the same molecule?
Answer: The IC50 was 1.67 µM.

Question: What about the IC50 [21] of the same molecule?
Answer: Its IC50 is 0.21 µM.

Question: What about the Activity [1] of the same molecule?
Answer: The Activity was “Non-Toxic”.

Question: What about the IC50 at 48 h ([2]; cho) of the same molecule?
Answer: The IC50 at 48 h was 3.18 µM.

Question: What about the Activity [22] of the same molecule?
Answer: The Activity was 90%.

Question: And the MSD [3]?
Answer: Its MSD is 9 days.

Question: What about the IC50 [23] of the same molecule?
Answer: Its IC50 is 0.066 µM.

Question: Which IC50 [24] does the source give for `O=[N+]([O-])c1ccc(NCCn2c(NC3CCN(CCc4ccc(-c5nc(C(F)(F)F)no5)cc4)CC3)nc3ccccc32)c2nonc12` here?
Answer: The IC50 was 0.14 µM.

Question: And the IC50 [25]?
Answer: The IC50 was 0.37 µM.

Question: And the Drug uptake [26]?
Answer: The Drug uptake was “Active”.

Question: What about the Drug uptake [27] of the same molecule?
Answer: Its Drug uptake is “Active”.

Question: And the Drug uptake [28]?
Answer: The Drug uptake was “Not Active”.

Question: And the Drug uptake [29]?
Answer: Its Drug uptake is “Active”.

Question: And the Drug uptake [30]?
Answer: Its Drug uptake is “Active”.

Question: And the Drug uptake [31]?
Answer: The Drug uptake was “Active”.

Question: And the solubility kinetic at 2 h [32]?
Answer: The solubility kinetic at 2 h was 120 µM (≈ 79.5 µg/mL).

Question: For `Cc1noc(-c2ccc(CCN3CCC(Nc4nc5ccccc5[nH]4)CC3)cc2)n1`, which IC50 [19] is on record?
Answer: Its IC50 is 0.176 µM.

Question: And the IC50 at 48 h ([2]; CHO cells)?
Answer: The IC50 at 48 h was 3.56 µM.

Question: What about the selectivity ratio [33] of the same molecule?
Answer: Its selectivity ratio is 64.7.

Question: And the Activity [22]?
Answer: Its Activity is 40%.

Question: And the Cmax [4]?
Answer: Its Cmax is 1000 nM.

Question: And the Tmax [5]?
Answer: Its Tmax is 1.5 h.

Question: And the half-life [6]?
Answer: Its half-life is 10.3 h.

Question: What about the half-life [7] of the same molecule?
Answer: The half-life was 11.6 h.

Question: What about the CL [8] of the same molecule?
Answer: The CL was 16.6 mL/min/kg.

Question: And the Vd [9]?
Answer: Its Vd is 13.6 L/kg.

Question: And the AUC [10]?
Answer: The AUC was 550 µM/min.

Question: What about the AUC [11] of the same molecule?
Answer: Its AUC is 535 µM/min.

Question: What about the AUC [12] of the same molecule?
Answer: Its AUC is 5548 µM/min.

Question: And the bioavailability [13]?
Answer: Its bioavailability is 29.3%.

Question: What about the bioavailability [14] of the same molecule?
Answer: The bioavailability was 61%.

Question: And the Cmax [16]?
Answer: Its Cmax is 5900 nM.

Question: And the Tmax [17]?
Answer: Its Tmax is 3 h.

Question: And the half-life [18]?
Answer: The half-life was 9.2 h.

Question: What about the solubility kinetic at 2 h [32] of the same molecule?
Answer: Its solubility kinetic at 2 h is 80 µM (≈ 32.2 µg/mL).

Question: What about the IC50 [23] of the same molecule?
Answer: The IC50 was 0.055 µM.

Question: Which IC50 [34] does the source give for `COc1ccc(CCN2CCC(Nc3nc4cc(Cl)c(Cl)cc4[nH]3)CC2)cc1` here?
Answer: The IC50 was 0.083 µM.
